The record followed here is patent US12240846B2 (Enliven Inc., priority 2020, dated 2025).

In test [1] the target is ABL1 (T315I) (Homo sapiens, UniProt P00519, T315I). In words: Luminescence-based ABL kinase assay (300 μM ATP), ADP-Glo. The class given is biochemical.
Description: Kinase activity of ABL1 was measured using the ADP-Glo system (Promega), which measures formation of ADP using a luminescence-based method. Compounds were serially diluted in DMSO. 20 nL of compound or DMSO only (high control, HC) were added to a 384-well plate (OptiPlate-384. PerkinElmer) using an Echo550 liquid handler (Labcyte). 15 μL of kinase solution (10 mM MgCl2, 0.01% Brij-35, 2 mM DTT, 0.05% BSA, 1 mM EGTA, 50 mM HEPES pH 7.5, and 3.325 nM ABL1 [Carna Biosciences]) were added to each well of the 384-well plate containing the compounds. No enzyme control wells were included (low control, LC). The plate was incubated at room temperature for 30 minutes. 5 μL of a second solution containing 10 mM MgCl2, 0.01% Brij-35, 2 mM DTT, 0.05% BSA, 1 mM EGTA, 50 mM HEPES pH 7.5, 6 μM Peptide 2 (Perkin Elmer, Cat No 760346), and 1.2 mM ATP were added to each well to start the kinase reaction. The plate was incubated for 90 minutes at room temperature. 20 μL of ADP-Glo reagent (Promega) were then added to each well and the plate was incubated for 40 minutes at room temperature. 40 μL of kinase detection reagent (Promega) was added to each well and the plate was incubated for an additional 45 minutes at room temperature. During this step, ADP was converted to ATP, a substrate for luciferase, to produce luminescence signal. Luminescence was measured on an Envision plate reader (Perkin Elmer). Luminescence signal positively correlates with kinase activity. The percent kinase activity was calculated as follows: percent kinase activity=100×(Lumsample−LumLC)/(LumHC−LumLC). As noted above, DMSO only and no enzyme wells were used as high and low controls, respectively. IC50 values were calculated using the XLFit software.
In test [2] the test system is HL60 cells. In words: HL60 cell proliferation assay (CellTiter-Glo). The class given is cell-based. As to conditions: Homo sapiens, HL-60, HL60 cell viability, 72 hours, read-out: Cell Line (IC50, nM) HL60. As to the method: (§1) K562 and HL60 Cell Proliferation Assay
(§2) K562 and HL60 cells, cultured in Iscove's Modified Dulbecco's Media (IMDM) supplemented with 10% FBS, were harvested at 50-80% confluency and plated at 2,000 cells per well (K562) or 1,500 cells per well (HL60) in 384-well tissue culture plates. A subset of wells contained media only (low control, LC). […] The plates were placed in a 37° C. incubator with 5% CO2 for 72 hours. Cell viability was measured using a CellTiter-Glo luminescent cell viability assay (Promega), which allows for relative quantification of metabolically active cells by luminescence-based measurements of intracellular ATP concentrations. Briefly, plates were removed from the incubator and equilibrated for 15 minutes at room temperature prior to the addition of 40 μL of CellTiter-Glo reagent. Plates were then incubated for 30 minutes at room temperature. Luminescence was measured using an EnSpire plate reader (Perkin Elmer). As noted above, luminescence values from wells with DMSO only or media without cells were used as high and low controls (HC and LC), respectively. Normalized percent viability was calculated as follows: percent viability=100×(Lumsample−LumLC)/(LumHC−LumLC).

Test [3] addresses T1, ABL1 (Homo sapiens, UniProt P00519).
T1 construct: purchased Carna Biosciences
The experiment in a line: Luminescence-based ABL kinase assay (300 μM ATP), ADP-Glo. The class given is biochemical. An excerpt:
Compounds were serially diluted in DMSO. […] Luminescence signal positively correlates with kinase activity.

Test [4] relates to K562 cells. In words: K562 cell proliferation assay (CellTiter-Glo). The class given is cell-based. As to conditions: Homo sapiens, K562 cell viability, 72 hours, read-out: Cell Line (IC50, nM) K562. As to the method:
as §1, §2

`COc1ccccc1-c1cc2cc(NC(=O)[C@H]3C[C@H]3CO)ncc2n1C` (relative stereo) [Compound 23, cis-2-(hydroxymethyl)-N-(2-(2-methoxyphenyl)-1-methyl-1H-pyrrolo[2,3-c]pyridin-5-yl)cyclopropane-1-carboxamide]: the IC50 was 79.5 nM in test [1], 1690 nM in test [2], 119 nM in test [3] and 631 nM in test [4].
Consider `COc1ccnc(OC)c1-c1cc2cc(NC(=O)[C@H]3C[C@@H]3CN3C4CCC3CNC4)ncc2n1C` (relative stereo) [Compound 147, Trans-2-((3,8-diazabicyclo[3.2.1]octan-8-yl)methyl)-N-(2-(2,4-dimethoxypyridin-3-yl)-1-methyl-1H-pyrrolo[2,3-c]pyridin-5-yl)cyclopropane-1-carboxamide], for which the IC50 is 41.8 nM in test [1], 24.4 nM in test [3] and 152 nM in test [4].
For the compound `COc1ccnc(OC)c1-c1cc2cc(NC(=O)[C@@H]3C[C@H]3CN3CCN(C)CC3)ncc2n1C` (single isomer, unassigned) [Compound 121], the IC50 in test [1] is 87.9 nM; in test [2], over 10000 nM; in test [3], 88.8 nM; in test [4], 99.1 nM.
For `COc1ccnc(OC)c1-c1cc2cc(NC(=O)[C@@H]3C[C@H]3CN(C)C)ncc2n1C` (single isomer, unassigned) [Compound 122] the same measures were 52.8 nM, over 10000 nM, 53.4 nM and 117 nM.
Consider `COc1ccnc(OC)c1-c1cc2cc(NC(=O)[C@H]3C[C@@H]3CN(C)C)ncc2n1C` (single isomer, unassigned) [Compound 123], for which the IC50 in test [1] is 80.6 nM; in test [2], 1770 nM; in test [3], 59.4 nM; in test [4], 106 nM.
On the same counts, the results for `COc1ncnc(OC)c1-c1cc2cc(NC(=O)[C@H]3C[C@@H]3CN3CCN(C)CC3)ncc2n1C` (single isomer, unassigned) [Compound 124] are 56.7 nM, over 10000 nM, 14.9 nM and 41.4 nM.
On to `COc1ncnc(OC)c1-c1cc2cc(NC(=O)[C@@H]3C[C@H]3CN3CCN(C)CC3)ncc2n1C` (single isomer, unassigned) [Compound 125], for which the IC50 in test [1] was 107 nM; in test [2], over 10000 nM; in test [3], 48.3 nM; in test [4], 113 nM.
On the same counts, the results for `COc1ncc(F)c(OC)c1-c1cc2cc(NC(=O)[C@@H]3C[C@H]3CN3CCN(C)CC3)ncc2n1C` (single isomer, unassigned) [Compound 129] are 34.6 nM, over 10000 nM, 33.4 nM and 85.5 nM.
Consider `COc1ccccc1-c1cc2cc(NC(=O)[C@@H]3C[C@H]3CN(C)C)ncc2n1C` (single isomer, unassigned) [Compound 132], for which the IC50 in test [1] stood at 75.1 nM; in test [3], 59.4 nM; in test [4], 165 nM.
Consider `COc1ccccc1-c1cc2cc(NC(=O)[C@H]3C[C@@H]3CN(C)C)ncc2n1C` (single isomer, unassigned) [Compound 133], for which the results for the IC50 in test [1], in test [3] and in test [4] were 85.9 nM, 73.5 nM and 181 nM, respectively.
With `CCOc1ccccc1-c1cc2cc(NC(=O)C3CC3)ncc2n1C` [Compound 3, N-[2-(2-ethoxyphenyl)-1-methylpyrrolo[2,3-c]pyridin-5-yl]cyclopropanecarboxamide], the results for the concentration for half-maximal inhibition (IC50) in test [2] and in test [4] were 209 nM and 127 nM, respectively.
Turning to `Cc1cc(O)ccc1-c1cc2cc(NC(=O)C3CC3)ncc2n1C` [Compound 8, N-[2-(4-hydroxy-2-methylphenyl)-1-methylpyrrolo[2,3-c]pyridin-5-yl]cyclopropanecarboxamide], the IC50 stood at 59.1 nM in test [2] and 95.6 nM in test [4].
Turning to `Cc1ccc(F)cc1-c1cc2cc(NC(=O)C3CC3)ncc2n1C` [Compound 12, N-[2-(5-fluoro-2-methylphenyl)-1-methylpyrrolo[2,3-c]pyridin-5-yl]cyclopropanecarboxamide], the IC50 was found to be 4220 nM in test [2] and 317 nM in test [4].
`COc1ncccc1-c1cc2cc(NC(=O)C3CC3)ncc2n1C` [Compound 22, N-[2-(2-methoxypyridin-3-yl)-1-methylpyrrolo[2,3-c]pyridin-5-yl]cyclopropanecarboxamide]: the IC50 was 958 nM in test [2] and 179 nM in test [4].
For `COc1nc(C2CC2)nc(OC)c1-c1cc2cc(NC(=O)[C@@H]3C[C@@H]3F)ncc2n1C` [Compound 100, (1S,2S)-N-(2-(2-cyclopropyl-4,6-dimethoxypyrimidin-5-yl)-1-methyl-1H-pyrrolo[2,3-c]pyridin-5-yl)-2-fluorocyclopropane-1-carboxamide], the half-inhibitory concentration (IC50) in test [1] worked out at 233 nM; in test [3], 49.2 nM; in test [4], 66.2 nM.
On the same counts, the results for `COc1nc(C)c(F)c(OC)c1-c1cc2cc(NC(=O)[C@@H]3C[C@@H]3F)ncc2n1C` [Compound 101, (1S,2S)-2-fluoro-N-[2-(5-fluoro-2,4-dimethoxy-6-methylpyridin-3-yl)-1-methylpyrrolo[2,3-c]pyridin-5-yl]cyclopropane-1-carboxamide] are 2330 nM, 153 nM and 456 nM.
`COc1nc(N(C)C)nc(OC)c1-c1cc2cc(NC(=O)[C@@H]3C[C@@H]3F)ncc2n1C` [Compound 104, (1S,2S)-N-(2-(2-(dimethylamino)-4,6-dimethoxypyrimidin-5-yl)-1-methyl-1H-pyrrolo[2,3-c]pyridin-5-yl)-2-fluorocyclopropane-1-carboxamide]: the IC50 in test [2] amounted to 240 nM.
Turning to `CNc1ncnc(OC)c1-c1cc2cc(NC(=O)[C@@H]3C[C@@H]3F)ncc2n1C` [Compound 109, (1S,2S)-2-fluoro-N-(2-(4-methoxy-6-(methylamino)pyrimidin-5-yl)-1-methyl-1H-pyrrolo[2,3-c]pyridin-5-yl)cyclopropane-1-carboxamide], the IC50 is 203 nM in test [1] and 60.2 nM in test [3].
Consider `COc1ncnc(NC2CC2)c1-c1cc2cc(NC(=O)[C@@H]3C[C@@H]3F)ncc2n1C` [Compound 110, (1S,2S)-N-(2-(4-(cyclopropylamino)-6-methoxypyrimidin-5-yl)-1-methyl-1H-pyrrolo[2,3-c]pyridin-5-yl)-2-fluorocyclopropane-1-carboxamide], for which the IC50 in test [1] was 357 nM; in test [3], 280 nM.
For `[2H]C([2H])([2H])Oc1ncnc(OC([2H])([2H])[2H])c1-c1cc2cc(NC(=O)[C@@H]3C[C@@H]3F)ncc2n1C([2H])([2H])[2H]` [Compound 111, (1S,2S)-N-(2-(4,6-bis(methoxy-d3)pyrimidin-5-yl)-1-(methyl-d3)-1H-pyrrolo[2,3-c]pyridin-5-yl)-2-fluorocyclopropane-1-carboxamide], the 50% inhibitory concentration (IC50) in test [4] came out at 23 nM.
Take `COc1cccc(OC)c1-c1cc2cc(NC(=O)[C@@H]3C[C@H]3CN(C)C)ncc2n1C` [Compound 134, (1R,2R)-N-(2-(2,6-dimethoxyphenyl)-1-methyl-1H-pyrrolo[2,3-c]pyridin-5-yl)-2-((dimethylamino)methyl)cyclopropane-1-carboxamide]: the IC50 in test [4] came to 53.1 nM.
As to `COc1cccc(OC)c1-c1cc2cc(NC(=O)[C@H]3C[C@@H]3CN(C)C)ncc2n1C` [Compound 135, (J S,2S)-N-(2-(2,6-dimethoxyphenyl)-1-methyl-1H-pyrrolo[2,3-c]pyridin-5-yl)-2-((dimethylamino)methyl)cyclopropane-1-carboxamide], the IC50 in test [4] was 27.9 nM.
Regarding `COc1ncnc(OC)c1-c1cc2cc(NC(=O)[C@@H]3CC3(F)F)ncc2n1C` [Compound 136, (1S)-N-[2-(4,6-dimethoxypyrimidin-5-yl)-1-methylpyrrolo[2,3-c]pyridin-5-yl]-2,2-difluorocyclopropane-1-carboxamide], the IC50 came to 1200 nM in test [2] and 98.8 nM in test [4].
As for `COc1ncnc(OC)c1-c1cc2cc(NC(=O)[C@H]3CC3(F)F)ncc2n1C` [Compound 137, (1R)-N-[2-(4,6-dimethoxypyrimidin-5-yl)-1-methylpyrrolo[2,3-c]pyridin-5-yl]-2,2-difluorocyclopropane-1-carboxamide], the IC50 was determined as 148 nM in test [2] and 37 nM in test [4].
As for `Cn1c(-c2cc(F)cnc2OC2CC2)cc2cc(NC(=O)[C@@H]3C[C@@H]3F)ncc21` [Compound 140, (1S,2S)-N-[2-(2-cyclopropoxy-5-fluoropyridin-3-yl)-1-methylpyrrolo[2,3-c]pyridin-5-yl]-2-fluorocyclopropane-1-carboxamide], the values for the IC50 in test [2], in test [3] and in test [4] were over 10000 nM, 95.8 nM and 291 nM, respectively.
Regarding `[2H]C([2H])([2H])Oc1ncnc(OC([2H])([2H])[2H])c1-c1cc2cc(NC(=O)[C@@H]3C[C@@H]3F)ncc2[nH]1` [Compound 144, (1S,2S)-N-(2-(4,6-bis(methoxy-d3)pyrimidin-5-yl)-1H-pyrrolo[2,3-c]pyridin-5-yl)-2-fluorocyclopropane-1-carboxamide], the IC50 in test [2] was over 10000 nM; in test [4], 1070 nM.
